Assay results as given in patent US20040198756A1, “Medicaments” (priority 2001, published 2004).
Counter-ions that a name gives are not always drawn.

Tested on: S. aureus WCUH29, S. pneumoniae 1629, H. influenzae ATCC 51907, M. catarrhalis Ravisio
Assay: MIC of further test compounds against an alternative selection of organisms
Type: cell-based
Conditions: read-out: MIC values versus some of these organisms
Experimental: The MIC (μg/ml) of further test compounds against an alternative selection of organisms was determined:
S. aureus WCUH29, S. pneumoniae 1629, H. influenzae ATCC 51907, M. catarrhalis Ravisio.

How did the MIC turn out when `COc1ccc2nccc(NC(=O)C3(C(F)(F)F)CCN(CCc4cc5c(nn4)SCC(=O)N5)CC3)c2n1` [Example 24, 1-[2-(6-Oxo-6,7-dihydro-5H-8-thia-1,2,5-triazanaphthalen-3-yl)ethyl]-4-trifluoromethylpiperidine-4-carboxylic acid (6-methoxy-[1,5]naphthyridin-4-yl) amide dihydrochloride] was run?
The MIC was at most 16 µg/mL.
